Reference: patent publication US10988792B2, “Methods for antimicrobial resistance determination” (bioMerieux, Inc., priority 2009, dated 2021)

What was measured:
Type in all cases: cell-based
E. faecium 12480 (VSE) = test: Co-culture with vancomycin and Sytox Green, intrinsic fluorescence and membrane integrity of pellet; conditions: for Microbial NADH fluorescence (Ex340 nm/Em440 nm) / Microbial tryptophan fluorescence (Ex300 nm/Em360 nm): 12480 (VSE)
Experimental: For each test strain, a 1 μL loopful of colonies from a 24-48 hour plate was suspended in 10-12 mL of BacT/ALERT SA media and cultured for 4-9 hours at 37° C. Samples of each log phase culture were then incubated with 0, 0.25, 2.5 and 12.5 μg/mL of vancomycin-HCl in combination with 1:5000 dilution of stock Sytox Green, a viable cell impermeant DNA stain (Molecular Probes, cat #S7020), for a period of 4 hours at 37° C. Aliquots of the cultures were removed for analysis immediately (T0) and after 1, 2.5 and 4 hours.
(§1) At the appropriate time-point, 0.5 mL aliquots of the cultures (0.5 mL) were overlaid on a density cushion composed of 24% w/v CsCl in 10 mM Hepes, pH 7.4 and 0.005% Pluronic F-108 contained in custom-made optical centrifugation tubes as disclosed in related U.S. patent application, Ser. No. 12/589,969, entitled “Separation Device for Use in the Separation, Characterization and/or Identification of Microorganisms”, filed Oct. 30, 2009. The tubes were sealed and centrifuged at 10,000 rpm for 2 minutes to separate intact microorganisms from the culture medium and unbound chemicals. The tubes were then placed into a custom-built tube holder directly onto a fiber optic probe built into the base. The probe was attached to a FluoroLog 3 spectrofluorimeter. The tube was interrogated through its UV-transparent base, and fluorescence and diffuse reflectance readings collected.

E. faecium 13185 (VRE) = test: as above; conditions: for Microbial NADH fluorescence (Ex340 nm/Em440 nm) / Microbial tryptophan fluorescence (Ex300 nm/Em360 nm): 13185 (VRE)
Experimental: (§2) For each test strain, a 1 μL loopful of colonies from a 24-48 hour plate was suspended in 10-12 mL of BacT/ALERT SA media and cultured for 4-9 hours at 37° C. […] Aliquots of the cultures were removed for analysis immediately (T0) and after 1, 2.5 and 4 hours.
as §1

E. faecium 12406 (VRE) = test: as above; conditions: for Microbial NADH fluorescence (Ex340 nm/Em440 nm) / Microbial tryptophan fluorescence (Ex300 nm/Em360 nm): 12406 (VRE)
Experimental: as §2, §1

E. faecium #13185 (VRE) = test: Vancomycin MIC by VITEK 2; conditions: read-out: vancomycin MIC by VITEK 2
E. faecium #12406 (VRE) = test: Vancomycin MIC by VITEK 2; conditions: read-out: vancomycin MIC by VITEK 2
[1] = VSE strain 12480, vancomycin 2.5 and 12.5 μg/mL
[2] = VRE strain 13185, vancomycin 2.5 and 12.5 μg/mL
[3] = VRE strain 12406, vancomycin 2.5 and 12.5 μg/mL

In the case of `CN[C@H](CC(C)C)C(=O)N[C@H]1C(=O)N[C@@H](CC(N)=O)C(=O)N[C@H]2C(=O)N[C@H]3C(=O)N[C@H](C(=O)N[C@H](C(=O)O)c4cc(O)cc(O)c4-c4cc3ccc4O)[C@H](O)c3ccc(c(Cl)c3)Oc3cc2cc(c3O[C@@H]2O[C@H](CO)[C@@H](O)[C@H](O)[C@H]2O[C@H]2C[C@](C)(N)[C@H](O)[C@H](C)O2)Oc2ccc(cc2Cl)[C@H]1O` [vancomycin], the “Microbial NADH fluorescence (Ex340 nm/Em440 nm)” value (“Microbial NADH fluorescence” for short) (E. faecium 12480 (VSE); Vanc. 0.25 μg/mL, 1 hour) is reported as 271,470, the “Microbial tryptophan fluorescence (Ex300 nm/Em360 nm)” value (“Microbial tryptophan fluorescence” for short) (E. faecium 12480 (VSE); Vanc. 0.25 μg/mL, 1 hour) is reported as 460,266 and the “Microbial NADH fluorescence” value (E. faecium 12480 (VSE); Vanc. 0.25 μg/mL, 2.5 hour) is reported as 500,618. For the same compound, the “Microbial tryptophan fluorescence” value (E. faecium 12480 (VSE); Vanc. 0.25 μg/mL, 2.5 hour) was 678,352, the “Microbial NADH fluorescence” value (E. faecium 12480 (VSE); Vanc. 0.25 μg/mL, 4 hour) was 483,445 and the “Microbial tryptophan fluorescence” value (E. faecium 12480 (VSE); Vanc. 0.25 μg/mL, 4 hour) was 706,797. For the same compound, the “Microbial NADH fluorescence” value (E. faecium 12480 (VSE); Vanc. 0.25 μg/mL, Zero time) was 184,649, the “Microbial tryptophan fluorescence” value (E. faecium 12480 (VSE); Vanc. 0.25 μg/mL, Zero time) was 425,539 and the “Microbial NADH fluorescence” value (E. faecium 12480 (VSE); Vanc. 2.5 μg/mL, 1 hour) was 254,828. For the same compound, the “Microbial tryptophan fluorescence” value (E. faecium 12480 (VSE); Vanc. 2.5 μg/mL, 1 hour) was 438,541, the “Microbial NADH fluorescence” value (E. faecium 12480 (VSE); Vanc. 2.5 μg/mL, 2.5 hour) was 149,686 and the “Microbial tryptophan fluorescence” value (E. faecium 12480 (VSE); Vanc. 2.5 μg/mL, 2.5 hour) was 466,525. For the same compound, the “Microbial NADH fluorescence” value (E. faecium 12480 (VSE); Vanc. 2.5 μg/mL, 4 hour) was 100,931, the “Microbial tryptophan fluorescence” value (E. faecium 12480 (VSE); Vanc. 2.5 μg/mL, 4 hour) was 416,780 and the “Microbial NADH fluorescence” value (E. faecium 12480 (VSE); Vanc. 2.5 μg/mL, Zero time) was 221,692. For the same compound, the “Microbial tryptophan fluorescence” value (E. faecium 12480 (VSE); Vanc. 2.5 μg/mL, Zero time) was 361,962, the “Microbial NADH fluorescence” value (E. faecium 12480 (VSE); Vanc. 12.5 μg/mL, 1 hour) was 210,963 and the “Microbial tryptophan fluorescence” value (E. faecium 12480 (VSE); Vanc. 12.5 μg/mL, 1 hour) was 428,402. For the same compound, the “Microbial NADH fluorescence” value (E. faecium 12480 (VSE); Vanc. 12.5 μg/mL, 2.5 hour) was 171,994, the “Microbial tryptophan fluorescence” value (E. faecium 12480 (VSE); Vanc. 12.5 μg/mL, 2.5 hour) was 455,446 and the “Microbial NADH fluorescence” value (E. faecium 12480 (VSE); Vanc. 12.5 μg/mL, 4 hour) was 127,042. The “Microbial tryptophan fluorescence” value (E. faecium 12480 (VSE); Vanc. 12.5 μg/mL, 4 hour) was 438,978, the “Microbial NADH fluorescence” value (E. faecium 12480 (VSE); Vanc. 12.5 μg/mL, Zero time) was 178,982 and the “Microbial tryptophan fluorescence” value (E. faecium 12480 (VSE); Vanc. 12.5 μg/mL, Zero time) was 389,264. The “Course of cellular NADH levels” value (E. faecium 12480 (VSE); [1]) was “gradually declined over time”, the “Course of cellular tryptophan levels” value (E. faecium 12480 (VSE); [1]) was “remained stable over time” and the “Microbial NADH fluorescence” value (E. faecium 13185 (VRE); Vanc. 0.25 μg/mL, 1 hour) was 708,442. The “Microbial tryptophan fluorescence” value (E. faecium 13185 (VRE); Vanc. 0.25 μg/mL, 1 hour) was 557,453, the “Microbial NADH fluorescence” value (E. faecium 13185 (VRE); Vanc. 0.25 μg/mL, 2.5 hour) was 496,545 and the “Microbial tryptophan fluorescence” value (E. faecium 13185 (VRE); Vanc. 0.25 μg/mL, 2.5 hour) was 809,317. The “Microbial NADH fluorescence” value (E. faecium 13185 (VRE); Vanc. 0.25 μg/mL, 4 hour) was 627,392, the “Microbial tryptophan fluorescence” value (E. faecium 13185 (VRE); Vanc. 0.25 μg/mL, 4 hour) was 880,899 and the “Microbial NADH fluorescence” value (E. faecium 13185 (VRE); Vanc. 0.25 μg/mL, Zero time) was 316,618. The “Microbial tryptophan fluorescence” value (E. faecium 13185 (VRE); Vanc. 0.25 μg/mL, Zero time) was 546,862, the “Microbial NADH fluorescence” value (E. faecium 13185 (VRE); Vanc. 2.5 μg/mL, 1 hour) was 237,463 and the “Microbial tryptophan fluorescence” value (E. faecium 13185 (VRE); Vanc. 2.5 μg/mL, 1 hour) was 569,043. For the same compound, the “Microbial NADH fluorescence” value (E. faecium 13185 (VRE); Vanc. 2.5 μg/mL, 2.5 hour) was 965,305, the “Microbial tryptophan fluorescence” value (E. faecium 13185 (VRE); Vanc. 2.5 μg/mL, 2.5 hour) was 489,661 and the “Microbial NADH fluorescence” value (E. faecium 13185 (VRE); Vanc. 2.5 μg/mL, 4 hour) was 782,908. For the same compound, the “Microbial tryptophan fluorescence” value (E. faecium 13185 (VRE); Vanc. 2.5 μg/mL, 4 hour) was 868,768, the “Microbial NADH fluorescence” value (E. faecium 13185 (VRE); Vanc. 2.5 μg/mL, Zero time) was 256,533 and the “Microbial tryptophan fluorescence” value (E. faecium 13185 (VRE); Vanc. 2.5 μg/mL, Zero time) was 531,239. For the same compound, the “Microbial tryptophan fluorescence” value (E. faecium 13185 (VRE); Vanc. 12.5 μg/mL, 1 hour) was 579,537, the “Microbial NADH fluorescence” value (E. faecium 13185 (VRE); Vanc. 12.5 μg/mL, 2.5 hour) was 775,629 and the “Microbial tryptophan fluorescence” value (E. faecium 13185 (VRE); Vanc. 12.5 μg/mL, 2.5 hour) was 537,067. For the same compound, the “Microbial NADH fluorescence” value (E. faecium 13185 (VRE); Vanc. 12.5 μg/mL, 4 hour) was 710,100, the “Microbial tryptophan fluorescence” value (E. faecium 13185 (VRE); Vanc. 12.5 μg/mL, 4 hour) was 782,106 and the “Microbial NADH fluorescence” value (E. faecium 13185 (VRE); Vanc. 12.5 μg/mL, Zero time) was 234,554. For the same compound, the “Microbial tryptophan fluorescence” value (E. faecium 13185 (VRE); Vanc. 12.5 μg/mL, Zero time) was 537,160, the “Course of cellular NADH levels” value (E. faecium 13185 (VRE); [2]) was “rose after approximately 1 hour in culture and continued to rise over the 4-hour culture period” and the “Course of cellular tryptophan levels” value (E. faecium 13185 (VRE); [2]) was “rose slowly over the 4-hour culture period”. The “Microbial NADH fluorescence” value (E. faecium 12406 (VRE); Vanc. 0.25 μg/mL, 1 hour) was 616,448, the “Microbial tryptophan fluorescence” value (E. faecium 12406 (VRE); Vanc. 0.25 μg/mL, 1 hour) was 666,793 and the “Microbial NADH fluorescence” value (E. faecium 12406 (VRE); Vanc. 0.25 μg/mL, 2.5 hour) was 703,451. The “Microbial tryptophan fluorescence” value (E. faecium 12406 (VRE); Vanc. 0.25 μg/mL, 2.5 hour) was 679,880, the “Microbial NADH fluorescence” value (E. faecium 12406 (VRE); Vanc. 0.25 μg/mL, 4 hour) was 598,853 and the “Microbial tryptophan fluorescence” value (E. faecium 12406 (VRE); Vanc. 0.25 μg/mL, 4 hour) was 800,658. For the same compound, the “Microbial NADH fluorescence” value (E. faecium 12406 (VRE); Vanc. 0.25 μg/mL, Zero time) was 207,307, the “Microbial tryptophan fluorescence” value (E. faecium 12406 (VRE); Vanc. 0.25 μg/mL, Zero time) was 463,942 and the “Microbial tryptophan fluorescence” value (E. faecium 12406 (VRE); Vanc. 2.5 μg/mL, 1 hour) was 560,948. For the same compound, the “Microbial NADH fluorescence” value (E. faecium 12406 (VRE); Vanc. 2.5 μg/mL, 2.5 hour) was 573,926, the “Microbial tryptophan fluorescence” value (E. faecium 12406 (VRE); Vanc. 2.5 μg/mL, 2.5 hour) was 656,768 and the “Microbial NADH fluorescence” value (E. faecium 12406 (VRE); Vanc. 2.5 μg/mL, 4 hour) was 931,786. For the same compound, the “Microbial tryptophan fluorescence” value (E. faecium 12406 (VRE); Vanc. 2.5 μg/mL, 4 hour) was 651,886, the “Microbial NADH fluorescence” value (E. faecium 12406 (VRE); Vanc. 2.5 μg/mL, Zero time) was 440,416 and the “Microbial tryptophan fluorescence” value (E. faecium 12406 (VRE); Vanc. 2.5 μg/mL, Zero time) was 425,860. The “Microbial NADH fluorescence” value (E. faecium 12406 (VRE); Vanc. 12.5 μg/mL, 1 hour) was 207,520, the “Microbial tryptophan fluorescence” value (E. faecium 12406 (VRE); Vanc. 12.5 μg/mL, 1 hour) was 433,269 and the “Microbial NADH fluorescence” value (E. faecium 12406 (VRE); Vanc. 12.5 μg/mL, 2.5 hour) was 279,170. The “Microbial tryptophan fluorescence” value (E. faecium 12406 (VRE); Vanc. 12.5 μg/mL, 2.5 hour) was 560,607, the “Microbial NADH fluorescence” value (E. faecium 12406 (VRE); Vanc. 12.5 μg/mL, 4 hour) was 765,401 and the “Microbial tryptophan fluorescence” value (E. faecium 12406 (VRE); Vanc. 12.5 μg/mL, 4 hour) was 738,461. For the same compound, the “Microbial NADH fluorescence” value (E. faecium 12406 (VRE); Vanc. 12.5 μg/mL, Zero time) was 172,372, the “Microbial tryptophan fluorescence” value (E. faecium 12406 (VRE); Vanc. 12.5 μg/mL, Zero time) was 463,985 and the “Course of cellular NADH levels” value (E. faecium 12406 (VRE); [3]) was “rose after approximately 1 hour in culture and continued to rise over the 4-hour culture period”. For the same compound, the “Course of cellular tryptophan levels” value (E. faecium 12406 (VRE); [3]) was “rose slowly over the 4-hour culture period”, the “Delay in NADH production compared with the other VRE strain” value (E. faecium 12406 (VRE); VRE strain #12406, correlated with an influx of Sytox Green) was “longer delay in NADH production” and the MIC (E. faecium #13185 (VRE)) was over 32 µg/mL. It also gave an MIC (E. faecium #12406 (VRE)) of over 32 µg/mL.
